Experimental data as given in PMC5218480 (PLoS ONE, 2017).

System: MV-4-11 cells
Experiment: Gene expression microarray analysis (Affymetrix PrimeView) and GSEA
Assay type: cell-based, human
Set-up: RFU PODN (11730768_x_at) / Fold change /veh PODN (11730768_x_at) / RFU LINC00158 (11744669_a_at) / Fold change /veh LINC00158 (11744669_a_at) / RFU DUSP10 (11751237_a_at) / Fold change /veh DUSP10 (11751237_a_at) / RFU ID3 (11757404_x_at) / Fold change /veh ID3 (11757404_x_at) / RFU PLEKHG5 (11737974_s_at) / Fold change /veh PLEKHG5 (11737974_s_at) / RFU LRRC4B (11730491_at) / Fold change /veh LRRC4B (11730491_at) / RFU GIMAP4 (11747438_a_at) / Fold change /veh GIMAP4 (11747438_a_at) / RFU KRT8 (11758183_x_at) / Fold change /veh KRT8 (11758183_x_at) / RFU CNN1 (11734310_a_at) / Fold change /veh CNN1 (11734310_a_at) / RFU VPS37D (11726825_at) / Fold change /veh VPS37D (11726825_at) / RFU C10orf10 (11716522_x_at) / Fold change /veh C10orf10 (11716522_x_at) / RFU KIR2DL2 /// KIR2DL4 /// KIR2DL5A /// KIR2DL5B /// KIR2DS1 /// KIR2DS2 /// KIR2DS3 /// KIR2DS4 /// KIR3DL3 /// KIR3DL3 /// KIR3DS1 (11738374_at) / Fold change /veh KIR2DL2 /// KIR2DL4 /// KIR2DL5A /// KIR2DL5B /// KIR2DS1 /// KIR2DS2 /// KIR2DS3 /// KIR2DS4 /// KIR3DL3 /// KIR3DL3 /// KIR3DS1 (11738374_at) / RFU C1QL1 (11718748_at) / Fold change /veh C1QL1 (11718748_at) / RFU TMPRSS4 (11747572_a_at) / Fold change /veh TMPRSS4 (11747572_a_at) / RFU HAMP (11756126_x_at) / Fold change /veh HAMP (11756126_x_at) / RFU RNFT2 (11725882_a_at) / Fold change /veh RNFT2 (11725882_a_at) / RFU NR4A2 (11747474_a_at) / Fold change /veh NR4A2 (11747474_a_at) / RFU ABCC12 (11746883_a_at) / Fold change /veh ABCC12 (11746883_a_at) / RFU TMEM136 (11760407_x_at) / Fold change /veh TMEM136 (11760407_x_at) / RFU CLDN22 /// WWC2 (11732394_at) / Fold change /veh CLDN22 /// WWC2 (11732394_at) / RFU HLA-DPB1 (11760878_x_at) / Fold change /veh HLA-DPB1 (11760878_x_at) / RFU SPINT1 (11716480_a_at) / Fold change /veh SPINT1 (11716480_a_at) / RFU GAP43 (11754022_s_at) / Fold change /veh GAP43 (11754022_s_at) / RFU A4GNT (11735810_at) / Fold change /veh A4GNT (11735810_at) / RFU PRB3 (11715151_x_at) / Fold change /veh PRB3 (11715151_x_at) / RFU TUBB4B (11761932_at) / Fold change /veh TUBB4B (11761932_at) / RFU CAPN14 (11732068_a_at) / Fold change /veh CAPN14 (11732068_a_at) / RFU TMCC2 (11721928_a_at) / Fold change /veh TMCC2 (11721928_a_at) / RFU IRGQ (11745062_a_at) / Fold change /veh IRGQ (11745062_a_at) / RFU FAM174B (11720279_a_at) / Fold change /veh FAM174B (11720279_a_at) / RFU TMPRSS4 (11748680_a_at) / Fold change /veh TMPRSS4 (11748680_a_at) / RFU FAM212B (11763350_a_at) / Fold change /veh FAM212B (11763350_a_at) / RFU PLEKHG5 (11743358_a_at) / Fold change /veh PLEKHG5 (11743358_a_at) / RFU ZSCAN30 (11745921_a_at) / Fold change /veh ZSCAN30 (11745921_a_at) / RFU CMKLR1 (11741424_a_at) / Fold change /veh CMKLR1 (11741424_a_at) / RFU LOC101060620 /// MAPK8IP1 (11723275_at) / Fold change /veh LOC101060620 /// MAPK8IP1 (11723275_at) / RFU SPTSSB (11747773_x_at) / Fold change /veh SPTSSB (11747773_x_at) / RFU PRSS12 (11739890_at) / Fold change /veh PRSS12 (11739890_at) / RFU BIN1 (11741810_x_at) / Fold change /veh BIN1 (11741810_x_at) / RFU WNT11 (11732464_a_at) / Fold change /veh WNT11 (11732464_a_at) / RFU C10orf10 (11716521_a_at) / Fold change /veh C10orf10 (11716521_a_at) / RFU C5orf56 (11738089_at) / Fold change /veh C5orf56 (11738089_at) / RFU CYB561 (11721691_x_at) / Fold change /veh CYB561 (11721691_x_at) / RFU ANKRD19P (11752326_a_at) / Fold change /veh ANKRD19P (11752326_a_at) / RFU OR2T12 /// OR2T33 /// OR2T8 (11738714_s_at) / Fold change /veh OR2T12 /// OR2T33 /// OR2T8 (11738714_s_at) / RFU VCAN (11748164_a_at) / Fold change /veh VCAN (11748164_a_at) / RFU JSRP1 (11732532_at) / Fold change /veh JSRP1 (11732532_at) / RFU KRTAP10-11 (11738290_x_at) / Fold change /veh KRTAP10-11 (11738290_x_at) / RFU MYO3A (11730013_a_at) / Fold change /veh MYO3A (11730013_a_at) / RFU EBF3 (11725865_a_at) / Fold change /veh EBF3 (11725865_a_at) / RFU CAMK2N1 (11719241_x_at) / Fold change /veh CAMK2N1 (11719241_x_at) / RFU C5orf56 (11738088_a_at) / Fold change /veh C5orf56 (11738088_a_at) / RFU OLFML3 (11715873_a_at) / Fold change /veh OLFML3 (11715873_a_at) / RFU LOC100653217 /// NTM (11731650_a_at) / Fold change /veh LOC100653217 /// NTM (11731650_a_at) / RFU MAPK11 (11762145_a_at) / Fold change /veh MAPK11 (11762145_a_at) / RFU FIZ1 (11724087_x_at) / Fold change /veh FIZ1 (11724087_x_at) / RFU OASL (11726364_x_at) / Fold change /veh OASL (11726364_x_at) / RFU SOX15 (11748057_x_at) / Fold change /veh SOX15 (11748057_x_at) / RFU CD79A (11719716_a_at) / Fold change /veh CD79A (11719716_a_at) / RFU HIST1H1D (11736915_at) / Fold change /veh HIST1H1D (11736915_at) / RFU CASKIN2 (11723855_a_at) / Fold change /veh CASKIN2 (11723855_a_at) / RFU LOC730098 (11760151_x_at) / Fold change /veh LOC730098 (11760151_x_at) / RFU OR4N2 (11742367_at) / Fold change /veh OR4N2 (11742367_at) / RFU PRRT2 (11749266_a_at) / Fold change /veh PRRT2 (11749266_a_at) / RFU SNX32 (11753110_a_at) / Fold change /veh SNX32 (11753110_a_at) / RFU CDHR5 (11726645_a_at) / Fold change /veh CDHR5 (11726645_a_at) / RFU RCAN1 (11760418_a_at) / Fold change /veh RCAN1 (11760418_a_at) / RFU FAM167A (11723789_a_at) / Fold change /veh FAM167A (11723789_a_at) / RFU FAM26E (11764081_at) / Fold change /veh FAM26E (11764081_at) / RFU ISYNA1 (11749810_s_at) / Fold change /veh ISYNA1 (11749810_s_at) / RFU ACY1 (11761880_at) / Fold change /veh ACY1 (11761880_at) / RFU 11764098_at / Fold change /veh 11764098_at / RFU SAMD14 (11745864_x_at) / Fold change /veh SAMD14 (11745864_x_at) / RFU NPB (11741838_a_at) / Fold change /veh NPB (11741838_a_at) / RFU TMPRSS6 (11731388_a_at) / Fold change /veh TMPRSS6 (11731388_a_at) / RFU KRTAP10-2 (11738614_at) / Fold change /veh KRTAP10-2 (11738614_at) / RFU ARHGAP8 /// PRR5-ARHGAP8 (11727945_x_at) / Fold change /veh ARHGAP8 /// PRR5-ARHGAP8 (11727945_x_at) / RFU KRTAP5-7 /// NADSYN1 (11734609_at) / Fold change /veh KRTAP5-7 /// NADSYN1 (11734609_at) / RFU RASL12 (11751679_a_at) / Fold change /veh RASL12 (11751679_a_at) / RFU CDKN2B (11736163_a_at) / Fold change /veh CDKN2B (11736163_a_at) / RFU PRF1 (11729649_at) / Fold change /veh PRF1 (11729649_at) / RFU, ZNF638 /// ZNF638-IT1 / Fold change vs veh, ZNF638 /// ZNF638-IT1 / RFU, PANK3 / Fold change vs veh, PANK3 / RFU, SH3YL1 / Fold change vs veh, SH3YL1 / RFU, ZEB2 / Fold change vs veh, ZEB2 / RFU, NRIP1 / Fold change vs veh, NRIP1 / RFU, PTTG1IP / Fold change vs veh, PTTG1IP / RFU, CAPN2 / Fold change vs veh, CAPN2 / RFU, MED14 / Fold change vs veh, MED14 / RFU, SNORA58 / Fold change vs veh, SNORA58 / RFU, C1orf63 / Fold change vs veh, C1orf63 / RFU, LRRFIP1 / Fold change vs veh, LRRFIP1 / RFU, NDUFAF7 / Fold change vs veh, NDUFAF7 / RFU, SLC12A2 / Fold change vs veh, SLC12A2 / RFU, IBTK / Fold change vs veh, IBTK / RFU, ESF1 / Fold change vs veh, ESF1 / Fold change vs veh, TMEM50B / RFU, TAOK1 / Fold change vs veh, TAOK1 / RFU, ACBD3 / Fold change vs veh, ACBD3 / RFU, TMA16 / Fold change vs veh, TMA16 / RFU, RWDD3 / Fold change vs veh, RWDD3 / RFU, BCAT1 / Fold change vs veh, BCAT1 / RFU, EDEM3 / Fold change vs veh, EDEM3 / RFU, TMEM33 / Fold change vs veh, TMEM33 / RFU, WDR75 / Fold change vs veh, WDR75 / RFU, AHCTF1 / Fold change vs veh, AHCTF1 / RFU, TFRC / Fold change vs veh, TFRC / RFU, ZDHHC17 / Fold change vs veh, ZDHHC17 / RFU, NOM1 / Fold change vs veh, NOM1 / RFU, ARL8B / Fold change vs veh, ARL8B / RFU, ZBTB11 / Fold change vs veh, ZBTB11 / RFU, TAMM41 / Fold change vs veh, TAMM41 / RFU, KIAA1704 /// LOC100996395 / Fold change vs veh, KIAA1704 /// LOC100996395 / RFU, ING1 / Fold change vs veh, ING1 / RFU, TRMT61B / Fold change vs veh, TRMT61B / RFU, FUBP3 / Fold change vs veh, FUBP3 / RFU, TP53 / Fold change vs veh, TP53 / RFU, TNKS2 / Fold change vs veh, TNKS2 / RFU, ZFP14 / Fold change vs veh, ZFP14 / RFU, ACTR2 / Fold change vs veh, ACTR2 / RFU, PPP3R1 / Fold change vs veh, PPP3R1 / RFU, PIK3R1 / Fold change vs veh, PIK3R1 / RFU, HNRNPA1 / Fold change vs veh, HNRNPA1 / RFU, RNF170 / Fold change vs veh, RNF170 / RFU, ZNF28 / Fold change vs veh, ZNF28 / RFU, RNGTT / Fold change vs veh, RNGTT / RFU, OGT / Fold change vs veh, OGT / RFU, BRD1 / Fold change vs veh, BRD1 / RFU, MARS / Fold change vs veh, MARS / RFU, ZNF655 / Fold change vs veh, ZNF655 / RFU, FAHD1 / Fold change vs veh, FAHD1 / RFU, BDP1 / Fold change vs veh, BDP1 / RFU, LRRCC1 / Fold change vs veh, LRRCC1 / RFU, ARID1A / Fold change vs veh, ARID1A / RFU, ZNF146 / Fold change vs veh, ZNF146 / RFU, ZNF330 / Fold change vs veh, ZNF330 / RFU, GPN3 / Fold change vs veh, GPN3 / RFU, C9orf123 / Fold change vs veh, C9orf123 / RFU, N4BP2L2 / Fold change vs veh, N4BP2L2 / RFU, ARFIP1 / Fold change vs veh, ARFIP1 / RFU, FAM179B / Fold change vs veh, FAM179B / RFU, BCL10 / Fold change vs veh, BCL10 / RFU, UHRF1BP1L / Fold change vs veh, UHRF1BP1L / RFU, BET1 / Fold change vs veh, BET1 / RFU, CNOT2 / Fold change vs veh, CNOT2 / RFU, ZNF268 / Fold change vs veh, ZNF268 / Fold change vs veh, ZNF507 / RFU, DGCR2 / Fold change vs veh, DGCR2 / RFU, WDSUB1 / Fold change vs veh, WDSUB1 / Fold change vs veh, HSP90B1 /// MIR3652 / RFU, ADSS / Fold change vs veh, ADSS / RFU, GK / Fold change vs veh, GK / RFU, ZNF148 / Fold change vs veh, ZNF148 / RFU, TAF9 / Fold change vs veh, TAF9 / RFU, SLC1A5 / Fold change vs veh, SLC1A5 / RFU, SLMO2 / Fold change vs veh, SLMO2 / RFU, ABCC4 / Fold change vs veh, ABCC4 / RFU, LOC101060439 /// RAP1B / Fold change vs veh, LOC101060439 /// RAP1B / RFU, RFX7 / Fold change vs veh, RFX7 / RFU, GTPBP10 / Fold change vs veh, GTPBP10 / RFU, CNEP1R1 / Fold change vs veh, CNEP1R1 / RFU, BIVM-ERCC5 /// ERCC5 / Fold change vs veh, BIVM-ERCC5 /// ERCC5 / RFU, ILF3 / Fold change vs veh, ILF3 / RFU 11762660_at / Fold change /veh 11762660_at / RFU VCAN (11757783_s_at) / Fold change /veh VCAN (11757783_s_at) / RFU DDX43 (11728927_at) / Fold change /veh DDX43 (11728927_at) / RFU KRT8 (11758188_x_at) / Fold change /veh KRT8 (11758188_x_at) / RFU NKD1 (11759106_at) / Fold change /veh NKD1 (11759106_at) / RFU SRD5A1 (11742802_a_at) / Fold change /veh SRD5A1 (11742802_a_at) / RFU TPSAB1 /// TPSB2 (11721975_s_at) / Fold change /veh TPSAB1 /// TPSB2 (11721975_s_at) / RFU GSTM3 (11746129_a_at) / Fold change /veh GSTM3 (11746129_a_at) / RFU IL23R (11737362_x_at) / Fold change /veh IL23R (11737362_x_at) / RFU TMEM51 (11727254_a_at) / Fold change /veh TMEM51 (11727254_a_at) / RFU PIWIL2 (11732686_x_at) / Fold change /veh PIWIL2 (11732686_x_at) / RFU ORM1 (11744905_x_at) / Fold change /veh ORM1 (11744905_x_at) / RFU CCDC152 (11743942_at) / Fold change /veh CCDC152 (11743942_at) / RFU ECM1 (11717891_a_at) / Fold change /veh ECM1 (11717891_a_at) / RFU IL23R (11748794_a_at) / Fold change /veh IL23R (11748794_a_at) / RFU TNFAIP8L3 (11732012_x_at) / Fold change /veh TNFAIP8L3 (11732012_x_at) / RFU MBOAT4 (11741988_at) / Fold change /veh MBOAT4 (11741988_at) / RFU 11764193_at / Fold change /veh 11764193_at / RFU TMEM53 (11763286_at) / Fold change /veh TMEM53 (11763286_at) / RFU MAGEB2 (11727129_at) / Fold change /veh MAGEB2 (11727129_at) / RFU TMEM200A (11744735_a_at) / Fold change /veh TMEM200A (11744735_a_at) / RFU CCDC152 (11751479_a_at) / Fold change /veh CCDC152 (11751479_a_at) / RFU FAM211A (11726209_a_at) / Fold change /veh FAM211A (11726209_a_at) / RFU RGS16 (11746705_a_at) / Fold change /veh RGS16 (11746705_a_at) / RFU VCAN (11755009_s_at) / Fold change /veh VCAN (11755009_s_at) / RFU RHOB (11743442_s_at) / Fold change /veh RHOB (11743442_s_at) / RFU RGS16 (11720943_a_at) / Fold change /veh RGS16 (11720943_a_at) / RFU RGS16 (11720944_at) / Fold change /veh RGS16 (11720944_at) / RFU, VPS4B / Fold change vs veh, VPS4B / RFU, CREB1 / Fold change vs veh, CREB1 / RFU, DNAJC13 / Fold change vs veh, DNAJC13 / RFU, GNAQ / Fold change vs veh, GNAQ / RFU, CDK5R1 / Fold change vs veh, CDK5R1 / RFU, ZRANB3 / Fold change vs veh, ZRANB3 / RFU, CUL4A / Fold change vs veh, CUL4A / RFU, CCNY / Fold change vs veh, CCNY / RFU, UFL1 / Fold change vs veh, UFL1 / RFU, COG3 / Fold change vs veh, COG3 / RFU, DIAPH2 / Fold change vs veh, DIAPH2 / RFU, SKA2 / Fold change vs veh, SKA2 / RFU, AFF3 / Fold change vs veh, AFF3 / RFU, LMF1 / Fold change vs veh, LMF1 / RFU, IPO11 / Fold change vs veh, IPO11 / RFU, DFFB / Fold change vs veh, DFFB / RFU, FOXP1 / Fold change vs veh, FOXP1 / RFU, CARD8 / Fold change vs veh, CARD8 / RFU, STRN3 / Fold change vs veh, STRN3 / RFU, ADK / Fold change vs veh, ADK / RFU, RASSF2 / Fold change vs veh, RASSF2 / RFU, WIPF1 / Fold change vs veh, WIPF1 / RFU, LARP1B / Fold change vs veh, LARP1B / RFU, RASA1 / Fold change vs veh, RASA1 / RFU, RB1 / Fold change vs veh, RB1 / RFU, PPFIA1 / Fold change vs veh, PPFIA1 / RFU, MAT2A / Fold change vs veh, MAT2A / RFU, CCT5 / Fold change vs veh, CCT5 / RFU, WDR92 / Fold change vs veh, WDR92 / RFU, CUX1 / Fold change vs veh, CUX1 / RFU, TTC7A / Fold change vs veh, TTC7A / RFU, TMEM135 / Fold change vs veh, TMEM135 / RFU, DEPTOR / Fold change vs veh, DEPTOR / RFU, CPM / Fold change vs veh, CPM / RFU, DNAJB6 / Fold change vs veh, DNAJB6 / RFU, CACNA2D3 / Fold change vs veh, CACNA2D3 / RFU, DTX4 / Fold change vs veh, DTX4 / RFU, TFCP2 / Fold change vs veh, TFCP2 / RFU, GMCL1 /// GMCL1P1 / Fold change vs veh, GMCL1 /// GMCL1P1 / RFU, AEBP2 / Fold change vs veh, AEBP2 / RFU, SNHG1 /// SNORD22 /// SNORD25 /// SNORD26 /// SNORD27 /// SNORD28 /// SNORD29 /// SNORD31 / Fold change vs veh, SNHG1 /// SNORD22 /// SNORD25 /// SNORD26 /// SNORD27 /// SNORD28 /// SNORD29 /// SNORD31 / Fold change (Aza/veh), C12orf56 (ProbeSet 11735607_a_at) / Fold change (ACY-1035/veh), C12orf56 (ProbeSet 11735607_a_at) / Fold change (Aza/veh), FGFR1OP (ProbeSet 11751329_s_at) / Fold change (ACY-1035/veh), FGFR1OP (ProbeSet 11751329_s_at) / Fold change (Aza/veh), VPS36 (ProbeSet 11739960_a_at) / Fold change (ACY-1035/veh), VPS36 (ProbeSet 11739960_a_at) / RFU SYPL1 (11715823_x_at) / Fold change /veh SYPL1 (11715823_x_at) / RFU IGFBP7 (11715501_s_at) / Fold change /veh IGFBP7 (11715501_s_at) / RFU REEP3 (11722064_at) / Fold change /veh REEP3 (11722064_at) / RFU IGLL1 (11728026_x_at) / Fold change /veh IGLL1 (11728026_x_at): dose or concentration left out as unconfirmed
Conditions: MV-4-11 cells, 48 hours

`Nc1ccc(-c2cccs2)cc1NC(=O)c1ccc2c(c1)cc(C1CC1)n2CCN1CCOCC1` [ACY-1035] was tested, and the “RFU RNFT2 (11725882_a_at)” value was 13.97 RFU.
